Experimental findings from patent US20240279338A1, “Combination Treatment of Cancer” (Ares Trading S.A., priority 2021, published 2024) are described below.

The subject of experiment [1] is human T cells co-cultured with MDA-MB-231 tumor cells. Nature of the experiment: Rescue of IFNγ secretion from EBV-specific human T cells co-cultured with MDA-MB-231 tumor cells in presence of NECA. It is filed as cell-based. The conditions noted are these: Compound A 100 nM; bintrafusp alfa 1 μg/ml; 10 μM NECA; 74 hours of co-culture; T cells:tumor cells 0.5:1; ELISA. As for the experimental part: Then 10 μM NECA was added to the corresponding groups and 1.3×10^4 of T cells in 100 μl volume were transferred per well of 96-well flat bottom plate with 2.6×10^4 cells/well of MDA-MB-231 tumor cells pre-loaded with EBV peptide (30 ng/ml, […], 21st Century) in 100 μl of RPM11640 media, supplemented with 10% FBS. The final ratio for T cells:MDA-MB-231 tumor cells=0.5:1. Cell culture supernatants were collected after 74 hours of co-culture, and IFNγ levels were measured using human IFNγ ELISA Kit (R&D Systems) according to manufacturer instructions. The percentage of IFNγ secretion rescue was calculated using following formula: 100%−(IFNγ in samples treated with NECA and Compound A alone or combination with bintrafusp alfa minus IFNγ in control sample)[…](IFNγ in samples with NECA minus IFNγ in control sample)*100%. Representative graph with the results shown as average of three samples per treatment group±SEM. P-values are calculated using one-way ANOVA Tukey comparison test. […]
Briefly, MDA-MB-231 tumor cells were seeded to the flat bottom 96-well plate at 2.6×10^4 cells/well (in 100 μl of RPMI1640 media, supplemented with 10% FBS) and loaded with EBV peptide (30 ng/ml, […], 21st Century). […] Cell culture supernatants were collected after 74 hours of co-culture, and IFNγ levels were measured using human IFNγ ELISA Kit (R&D Systems) according to manufacturer instructions. […]
(In general: In an ELISA, binding on a coated surface is turned into a signal by an enzyme label.)

Experiment [2] deals with CD73 KO 4T1 tumor cells. Kind of experiment: CD73-KO 4T1 syngeneic tumor model, tumor growth. The conditions noted are these: CD73 KO 4T1, female BALB/c mice; Day 18 post treatment initiation; Compound A 300 mg/kg po bid; bintrafusp alfa 24.6 mg/kg iv days 0, 3, 6. It is filed as in vivo. As for the experimental part:
Female BALB/c mice were inoculated with 1×10^5 CD73 KO 4T1 tumor cells into the right mammary fat pad and were treated with Compound A (300 mg/kg po, bid), bintrafusp alfa (24.6 mg/kg iv, days 0, 3, 6), Compound A+bintrafusp alfa, when average tumor volume reached approximately 60 mm^3. Vehicle (po, bid) and isotype control antibody injections (20 mg/kg iv, days 0, 3, 6) were used as controls. (A) Average tumor volumes with SEM, and (B) individual tumor volumes are presented. Tumor volume data were analyzed using two-way ANOVA followed by Tukey's multiple comparison test.
Further to the results of Example 3, tumor growth inhibition by the combined treatment with the dual A2A/A2B receptor inhibitor “Compound A” ((S)-7-Oxa-2-aza-spiro[4.5]decane-2-carboxylic acid [7-(3,6-dihydro-2H-pyran-4-yl)-4-methoxy-thiazolo[4,5-c]pyridin-2-yl]-amide) and bintrafusp alfa was examined in a syngeneic 4T1 tumor model, in which CD73 was knocked-out using GenCRISPR™ gene editing technology (GenScript USA, Inc). Efficacy of CD73 knockout in 4T1 tumor cells was confirmed by flow cytometry. Female BALB/c mice were inoculated into the right mammary fat pad with 1×10^5 CD73 KO 4T1 tumor cells and were treated with Compound A (300 mg/kg po, bid), bintrafusp alfa (24.6 mg/kg iv, days 0, 3, 6), Compound A+bintrafusp alfa, when average tumor volume reached approximately 60 mm^3. […]

Experiment [3] relates to MBT2 cells. Kind of experiment: CD73low MBT2 syngeneic tumor model, tumor growth. It is filed as in vivo. The conditions noted are these: MBT2, female C3H mice; Day 14; Compound A 300 mg/kg po BID; bintrafusp alfa 24.6 mg/kg iv days 0, 3, 6. As for the experimental part:
Female C3H mice were inoculated with 1×10^6 MBT2 cells in the right upper flank and were treated with Compound A (300 mg/kg po, BID), bintrafusp alfa (24.6 mg/kg iv, days 0, 3, 6), Compound A+bintrafusp alfa, when average tumor volume reached approximately 53 mm^3. Vehicle (po, BID) and isotype control antibody injections (20 mg/kg iv, days 0, 3, 6) were used as controls. (A) Average tumor volumes with SEM, and (B) individual tumor volumes are presented. Tumor volume data were analyzed using two-way ANOVA followed by Tukey's multiple comparison test.
To determine whether combined treatment with the dual A2A/A2B receptor inhibitor “Compound A” ((S)-7-Oxa-2-aza-spiro[4.5]decane-2-carboxylic acid [7-(3,6-dihydro-2H-pyran-4-yl)-4-methoxy-thiazolo[4,5-c]pyridin-2-yl]-amide) and bintrafusp alfa can inhibit tumor growth in either CD73^hi or CD73^low models, tumor growth was monitored in […] syngeneic tumor models. Animals were inoculated with either CD73^hi tumor cells (4T1, E0771, or EMT6) or with CD73^low MC38, H22 or MBT2 tumor cells. For all tumor models, animals were treated with either 1) vehicle and isotype, 2) Compound A and isotype, 3) vehicle and bintrafusp alfa, or 4) Compound A and bintrafusp alfa. […]

For the compound “bintrafusp alfa: anti-PD-L1:TGFβRII fusion protein, CAS 1918149-01-5; human IgG1 antibody against PD-L1 fused to extracellular domain of human TGF-β receptor II”, in experiment [1], the “rescue of IFNγ secretion” value is reported as around 24%. For the same compound, the “tumor growth inhibition, T/C” value in experiment [2] is recorded as 75.4%; in experiment [3], 29.9%.

Turning to `COc1ncc(C2=CCOCC2)c2sc(NC(=O)N3CC[C@@]4(CCCOC4)C3)nc12` [Compound A, (S)-7-Oxa-2-aza-spiro[4.5]decane-2-carboxylic acid [7-(3,6-dihydro-2H-pyran-4-yl)-4-methoxy-thiazolo[4,5-c]pyridin-2-yl]-amide], the “rescue of IFNγ secretion” value in experiment [1] is reported as “approx. 71%”. Besides, in experiment [2], the “tumor growth inhibition, T/C” value was determined as 108%.
